Reference: patent US20080214606A1, “Methods for the Identification and Use of Compounds Suitable for the Treatment of Drug Resistant Cancer Cells” (The Government of the United States of America as …, priority 2004, published 2008)
Entries after “also recorded” stand apart in the source; their conditions may differ.

Key:
[1] = biological target: T1, ABCC4 (Homo sapiens, UniProt O15439); assay: Correlation of ABCC4 expression with drug sensitivity across the NCI-60; assay type: cell-based; conditions: Pearson correlation of ABCC4 expression with sensitivity of the 60 cell lines; 1429 compounds; inverse, p < 0.0001
T1 construct: profiled in 60 diverse cancer cell lines (the NCI-60) using real-time RT-PCR; endogenous in cells; host or cells: NCI-60 human cancer cell lines
Procedure: (§2) Expression levels are measured by real-time quantitative RT-PCR using the LightCycler RNA Amplification SYBR Green kit and a LightCycler machine (Roche Biochemicals, Indianapolis, Ind.). […] When possible, the amplicons are designed to encompass exon-intron boundaries to avoid amplification of genomic DNA. Since the Syber Green assay detects accumulation of double stranded DNA, primers are selected (from a battery consisting of about 200 primers) that amplified a single product of the correct size.
(§3) RT-PCR is carried out on 150 ng total RNA, in the presence of 250 nM specific primers. […]
(§4) During PCR amplification, fluorescence emission is measured and recorded in real time by the LightCycler. Crossing point values are calculated, using the LightCycler software package, by the Fit Points analysis method, with baseline fluorescence set at 1. The SyberGreen assay measures accumulation of double-stranded products, and the appearance of primer dimers limits quantitation at high cycle numbers. […] The raw results are expressed as number of cycles to reach the crossing point. If the desired product is not detected, the corresponding value is adjusted to crossing points indicating no expression. To assess the contribution of experimental artifacts, selected cell lines are assessed in replicate. […]

[2] = biological target: T2, ABCC11 (Homo sapiens, UniProt Q96J66); assay: Correlation of ABCC11 expression with drug sensitivity across the NCI-60; assay type: cell-based; conditions: after removal of the single, high-expressing cell line (T47D)
T2 construct: profiled in 60 diverse cancer cell lines (the NCI-60) using real-time RT-PCR; endogenous in cells; host or cells: NCI-60 human cancer cell lines
Procedure: as §2, §3, §4

[3] = system: ABCC11-transfected LLC-PK1 cells; assay: MTT assay, ABCC11-transfected vs sham-transfected LLC-PK1 cells; assay type: cell-based
Procedure: Panel A is a scatter plot showing the correlation (r) of ABCC11 expression with sensitivity of the 60 cells to NSC 671136 (r=−0.4; 99.99% two-tailed bootstrap confidence interval −0.6726 to −0.0141). […] Values are means ±S.E. of triplicate MTT assays.
(§1) Cell survival is measured by the MTT (3-(4,5-Dimethylthiazol-2-yl)-2,5-diphenyltetrazolium) Assay. Cells are seeded in 100 μl medium at a density of 5000 cells/well in 96 well plates, and serially diluted drug (with or without 2 μM PSC 833) is added the following day in 100 μl medium to give the indicated final concentration. Cells are then incubated for 72 hrs at 37° C. in 5% CO2, and the MTT assay is performed according to the manufacturer's instructions (Molecular Probes, Eugene, Oreg.).
One compound, NSC 671136 (shown in FIG. 5, Panel C), met the stringent bootstrap criterion for significant inverse correlation with the expression of ABCC11 in the 60 cell lines (FIG. 5, Panel A). An MTT assay was used to assess whether over-expression of ABCC11 can confer resistance to the NSC 671136 compound.

[4] = biological target: T3, ABCC9 (Homo sapiens, UniProt O60706); assay: Correlation of ABCC9 expression with drug sensitivity across the NCI-60; assay type: cell-based; conditions: Pearson correlation of ABCC9 expression with sensitivity of the 60 cell lines; 1429 compounds; inverse, p < 0.0001
T3 construct: profiled in 60 diverse cancer cell lines (the NCI-60) using real-time RT-PCR; endogenous in cells; host or cells: NCI-60 human cancer cell lines
Procedure: as §2, §3, §4

[5] = biological target: ABCB1 (Homo sapiens, UniProt P08183); assay: Correlation of ABCB1 expression with drug sensitivity across the NCI-60
Chain of ABCB1 (P08183 whole entry): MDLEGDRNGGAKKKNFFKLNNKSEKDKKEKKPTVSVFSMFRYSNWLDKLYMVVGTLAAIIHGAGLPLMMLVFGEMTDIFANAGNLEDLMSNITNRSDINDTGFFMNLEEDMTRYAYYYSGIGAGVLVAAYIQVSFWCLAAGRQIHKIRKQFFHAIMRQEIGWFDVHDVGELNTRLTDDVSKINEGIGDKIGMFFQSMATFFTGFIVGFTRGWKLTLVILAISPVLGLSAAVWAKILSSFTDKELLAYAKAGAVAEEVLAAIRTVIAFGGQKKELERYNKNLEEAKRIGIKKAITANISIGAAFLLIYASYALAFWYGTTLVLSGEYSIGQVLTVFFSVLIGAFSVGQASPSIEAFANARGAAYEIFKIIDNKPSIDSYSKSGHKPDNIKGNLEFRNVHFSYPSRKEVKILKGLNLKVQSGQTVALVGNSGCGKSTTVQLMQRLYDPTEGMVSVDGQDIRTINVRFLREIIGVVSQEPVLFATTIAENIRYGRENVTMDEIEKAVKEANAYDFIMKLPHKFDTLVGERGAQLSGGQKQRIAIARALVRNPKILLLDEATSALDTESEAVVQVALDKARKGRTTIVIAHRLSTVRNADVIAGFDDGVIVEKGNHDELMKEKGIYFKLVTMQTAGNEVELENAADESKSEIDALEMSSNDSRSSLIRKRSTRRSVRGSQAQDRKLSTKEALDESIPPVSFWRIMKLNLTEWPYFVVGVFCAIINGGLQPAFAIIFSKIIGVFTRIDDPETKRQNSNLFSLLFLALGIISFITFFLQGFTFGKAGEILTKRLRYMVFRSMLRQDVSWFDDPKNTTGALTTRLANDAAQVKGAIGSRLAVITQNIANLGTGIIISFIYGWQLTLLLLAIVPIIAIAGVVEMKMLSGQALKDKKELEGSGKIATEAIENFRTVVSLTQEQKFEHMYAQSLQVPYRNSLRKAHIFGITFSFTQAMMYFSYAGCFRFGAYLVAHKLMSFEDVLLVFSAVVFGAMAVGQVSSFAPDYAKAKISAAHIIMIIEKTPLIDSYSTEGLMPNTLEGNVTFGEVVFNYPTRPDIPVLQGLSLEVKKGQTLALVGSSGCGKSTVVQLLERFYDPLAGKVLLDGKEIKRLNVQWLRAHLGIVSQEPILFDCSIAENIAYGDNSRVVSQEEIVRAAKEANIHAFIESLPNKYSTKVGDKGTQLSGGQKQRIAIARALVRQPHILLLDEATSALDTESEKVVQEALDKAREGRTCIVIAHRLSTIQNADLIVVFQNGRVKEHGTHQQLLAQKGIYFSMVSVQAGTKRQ
In short: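 SYBR Green real-time RT-PCR on 150 ng total RNA with 250 nM primers: RT 20 min at 50 °C, then 45 cycles; expression taken as crossing-point cycle number. Correlated with drug sensitivity of 1429 compounds across the cell panel; permutation p-values with step-down and step-up (FDR q-value) multiple-testing correction.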

[6] = biological target: T4, ABCD4 (Homo sapiens, UniProt O14678); assay: Correlation of ABCD4 expression with drug sensitivity across the NCI-60; assay type: cell-based; conditions: Pearson correlation of ABCD4 expression with sensitivity of the 60 cell lines; 1429 compounds; inverse, p < 0.0001
T4 construct: profiled in 60 diverse cancer cell lines (the NCI-60) using real-time RT-PCR; endogenous in cells; host or cells: NCI-60 human cancer cell lines
Procedure: (§5) Expression levels are measured by real-time quantitative RT-PCR using the LightCycler RNA Amplification SYBR Green kit and a LightCycler machine (Roche Biochemicals, Indianapolis, Ind.). Specific oligonucleotide probes are designed for each of the ABC transporters using DNAStar Primer Select (DNASTAR Inc.), and they may be synthesized at Lofstrand Laboratories (Gaithersburg, Md.). When possible, the amplicons are designed to encompass exon-intron boundaries to avoid amplification of genomic DNA. Since the Syber Green assay detects accumulation of double stranded DNA, primers are selected (from a battery consisting of about 200 primers) that amplified a single product of the correct size. […]
as §4

[7] = biological target: T5, ABCF1 (Homo sapiens, UniProt Q8NE71); assay: Correlation of ABCF1 expression with drug sensitivity across the NCI-60; assay type: cell-based; conditions: Pearson correlation of ABCF1 expression with sensitivity of the 60 cell lines; 1429 compounds; inverse, p < 0.0001
T5 construct: endogenous in cells; host or cells: NCI-60 human cancer cell lines
Procedure: as §5, §4

[8] = biological target: T6, ABCD1 (Homo sapiens, UniProt P33897); assay: Correlation of ABCD1 expression with drug sensitivity across the NCI-60; assay type: cell-based; conditions: Pearson correlation of ABCD1 expression with sensitivity of the 60 cell lines; 1429 compounds; inverse, p < 0.0001
T6 construct: profiled in 60 diverse cancer cell lines (the NCI-60) using real-time RT-PCR; endogenous in cells; host or cells: NCI-60 human cancer cell lines
T6 sequence (P33897 whole entry): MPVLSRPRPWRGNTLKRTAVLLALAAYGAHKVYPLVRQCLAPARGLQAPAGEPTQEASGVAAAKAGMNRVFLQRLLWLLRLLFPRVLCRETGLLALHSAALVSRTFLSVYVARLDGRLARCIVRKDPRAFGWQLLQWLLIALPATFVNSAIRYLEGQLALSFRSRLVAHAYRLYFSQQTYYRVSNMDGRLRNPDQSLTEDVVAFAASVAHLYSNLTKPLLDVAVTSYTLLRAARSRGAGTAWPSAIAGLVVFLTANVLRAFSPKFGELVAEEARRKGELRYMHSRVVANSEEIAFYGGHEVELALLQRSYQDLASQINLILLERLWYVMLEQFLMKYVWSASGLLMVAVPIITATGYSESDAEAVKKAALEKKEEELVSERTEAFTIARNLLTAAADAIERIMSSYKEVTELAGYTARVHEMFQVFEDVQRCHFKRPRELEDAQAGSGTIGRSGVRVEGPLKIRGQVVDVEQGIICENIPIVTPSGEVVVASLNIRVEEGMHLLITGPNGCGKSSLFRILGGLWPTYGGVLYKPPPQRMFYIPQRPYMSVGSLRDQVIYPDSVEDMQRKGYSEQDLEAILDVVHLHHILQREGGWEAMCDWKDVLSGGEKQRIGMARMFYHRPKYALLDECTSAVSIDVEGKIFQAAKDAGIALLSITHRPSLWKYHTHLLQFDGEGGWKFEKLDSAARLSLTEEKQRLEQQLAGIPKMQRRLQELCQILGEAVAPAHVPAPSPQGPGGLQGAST
Procedure: as §2
RT-PCR is carried out on 150 ng total RNA, in the presence of 250 nM specific primers. Following reverse transcription (20 min at 50° C.), the PCR reaction consists of 45 cycles of denaturation (15 sec at 95° C.), annealing (30 sec at 58° C.), and elongation (30 sec at 72° C.). No-template (water) reaction mixtures are prepared as negative controls.
During PCR amplification, fluorescence emission is measured and recorded in real time by the LightCycler. Crossing point values are calculated, using the LightCycler software package, by the Fit Points analysis method, with baseline fluorescence set at 1. The SyberGreen assay measures accumulation of double-stranded products, and the appearance of primer dimers limits quantitation at high cycle numbers. The specificity of amplified products is verified by melting-curve analysis and agarose gel electrophoresis (not shown). The raw results are expressed as number of cycles to reach the crossing point. If the desired product is not detected, the corresponding value is adjusted to crossing points indicating no expression. To assess the contribution of experimental artifacts, selected cell lines are assessed in replicate.
The two are combined to form a joint dataset that includes 1429 compounds.
To determine quantitatively how well the 47 genes cluster the cell lines by their tissues of origin, a statistical method is employed wherein the kappa statistic is used to indicate how well the observed clusters correspond to the nine tissue-of-origin classifications. […] To control the overall false type 1 error rate, both a step-down procedure (Westfall and Young, 1993, Resampling-Based Multiple Testing: Examples and Methods for p-value Adjustment (New York: Wiley)) and a step-up procedure (Reiner et al., 2003, Bioinformatics 19:368-375) were employed to adjust for multiple testing of all 47 genes simultaneously. In the Benjamini-Hochberg procedure the p-values are computed in the standard way by permutation, assuming that all distributions are exchangeable: the number of values in the permuted data with correlations over a threshold, divided by the number of compounds and by the number of permutations. In this analysis, the False Discovery Rate (q-value) at which each compound would be declared was calculated using the step-up procedure for positively correlated test statistics (again true because all correlations being compared are computed against the same ABC gene): in this procedure the first q-value for the largest correlation is the Bonferroni-corrected p-value for that gene; then further q-values are calculated as qj=max(pj*1429/j, qj-1). This procedure limits the expected proportion of false positives in the list 1, . . . , j to at most qj.

[9] = biological target: T7, ABCD3 (Homo sapiens, UniProt P28288); assay: Correlation of ABCD3 expression with drug sensitivity across the NCI-60; assay type: cell-based; conditions: Pearson correlation of ABCD3 expression with sensitivity of the 60 cell lines; 1429 compounds; inverse, p < 0.0001
T7 construct: profiled in 60 diverse cancer cell lines (the NCI-60) using real-time RT-PCR; endogenous in cells; host or cells: NCI-60 human cancer cell lines
Procedure: as §5, §4

[10] = biological target: T8, ABCG8 (Homo sapiens, UniProt Q9H221); assay: Correlation of ABCG8 expression with drug sensitivity across the NCI-60; assay type: cell-based; conditions: Pearson correlation of ABCG8 expression with sensitivity of the 60 cell lines; 1429 compounds; inverse, p < 0.0001
T8 construct: endogenous in cells; host or cells: NCI-60 human cancer cell lines
T8 sequence (Q9H221 whole entry): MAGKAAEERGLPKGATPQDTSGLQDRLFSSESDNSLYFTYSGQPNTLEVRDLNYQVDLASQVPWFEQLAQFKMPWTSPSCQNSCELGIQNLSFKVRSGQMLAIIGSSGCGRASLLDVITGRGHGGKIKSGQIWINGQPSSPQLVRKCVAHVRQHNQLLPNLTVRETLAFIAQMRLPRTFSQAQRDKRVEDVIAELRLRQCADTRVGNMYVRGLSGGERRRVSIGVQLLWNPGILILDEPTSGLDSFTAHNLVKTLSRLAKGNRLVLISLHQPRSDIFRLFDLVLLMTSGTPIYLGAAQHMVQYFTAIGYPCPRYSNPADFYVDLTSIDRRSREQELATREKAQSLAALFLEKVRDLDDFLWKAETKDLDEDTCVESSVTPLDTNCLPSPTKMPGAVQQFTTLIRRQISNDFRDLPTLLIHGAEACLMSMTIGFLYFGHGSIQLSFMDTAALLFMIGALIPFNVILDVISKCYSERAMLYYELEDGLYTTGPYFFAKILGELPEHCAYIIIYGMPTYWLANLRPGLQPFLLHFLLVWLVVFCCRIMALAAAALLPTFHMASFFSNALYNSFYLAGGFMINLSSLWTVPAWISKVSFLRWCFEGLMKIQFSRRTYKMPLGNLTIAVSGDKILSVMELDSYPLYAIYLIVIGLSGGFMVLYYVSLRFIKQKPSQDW
T8 sequence (Q9H222 whole entry partner): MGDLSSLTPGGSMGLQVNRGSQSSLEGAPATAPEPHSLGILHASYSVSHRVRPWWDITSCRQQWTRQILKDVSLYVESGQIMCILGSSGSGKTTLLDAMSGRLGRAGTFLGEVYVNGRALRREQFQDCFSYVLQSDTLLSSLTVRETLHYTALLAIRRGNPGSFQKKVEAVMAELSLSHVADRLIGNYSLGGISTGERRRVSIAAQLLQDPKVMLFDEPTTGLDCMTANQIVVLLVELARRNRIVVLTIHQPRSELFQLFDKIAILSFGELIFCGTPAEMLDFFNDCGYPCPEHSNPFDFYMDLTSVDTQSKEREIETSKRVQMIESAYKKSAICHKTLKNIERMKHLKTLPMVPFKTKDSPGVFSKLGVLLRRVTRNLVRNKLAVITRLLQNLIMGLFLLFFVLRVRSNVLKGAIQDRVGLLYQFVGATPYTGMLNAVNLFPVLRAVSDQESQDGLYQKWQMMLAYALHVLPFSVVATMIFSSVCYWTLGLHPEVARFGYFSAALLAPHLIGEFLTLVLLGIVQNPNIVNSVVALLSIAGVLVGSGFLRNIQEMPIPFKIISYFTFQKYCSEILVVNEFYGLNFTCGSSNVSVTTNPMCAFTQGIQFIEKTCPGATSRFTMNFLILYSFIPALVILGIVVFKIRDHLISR
Procedure: as §5, §4

[11] = biological target: T9, ABCC8 (Homo sapiens, UniProt Q09428); assay: Correlation of ABCC8 expression with drug sensitivity across the NCI-60; assay type: cell-based; conditions: Pearson correlation of ABCC8 expression with sensitivity of the 60 cell lines; 1429 compounds; inverse, p < 0.0001
T9 construct: profiled in 60 diverse cancer cell lines (the NCI-60) using real-time RT-PCR; endogenous in cells; host or cells: NCI-60 human cancer cell lines
Procedure: as §2, §3, §4

[12] = biological target: T10, ABCB3 (Homo sapiens, UniProt Q03519); assay: Correlation of ABCB3 expression with drug sensitivity across the NCI-60; assay type: cell-based; conditions: Pearson correlation of ABCB3 expression with sensitivity of the 60 cell lines; 1429 compounds; inverse, p < 0.0001
T10 construct: profiled in 60 diverse cancer cell lines (the NCI-60) using real-time RT-PCR; endogenous in cells; host or cells: NCI-60 human cancer cell lines
Procedure: as §2, §3
During PCR amplification, fluorescence emission is measured and recorded in real time by the LightCycler. Crossing point values are calculated, using the LightCycler software package, by the Fit Points analysis method, with baseline fluorescence set at 1. The SyberGreen assay measures accumulation of double-stranded products, and the appearance of primer dimers limits quantitation at high cycle numbers. […] The raw results are expressed as number of cycles to reach the crossing point. If the desired product is not detected, the corresponding value is adjusted to crossing points indicating no expression. To assess the contribution of experimental artifacts, selected cell lines are assessed in replicate.

[13] = biological target: T11, ABCB2 (Homo sapiens, UniProt Q03518); assay: Correlation of ABCB2 expression with drug sensitivity across the NCI-60; assay type: cell-based; conditions: Pearson correlation of ABCB2 expression with sensitivity of the 60 cell lines; 1429 compounds; inverse, p < 0.0001
T11 construct: profiled in 60 diverse cancer cell lines (the NCI-60) using real-time RT-PCR; endogenous in cells; host or cells: NCI-60 human cancer cell lines
Procedure: as §5, §4

[14] = system: MDR1 positive cells; assay: Pretreatment of MDR1 positive cells with MDR1-potentiated compound (loss of MDR phenotype); assay type: cell-based
Description: In another preferred embodiment, the invention relates to methods of inhibiting the development of a multidrug resistance phenotype in a cancer in a subject comprising administering an ABCB1 potentiated agent to the subject. As used herein, inhibiting the development of a multidrug resistant phenotype refers to both the inhibition of the initial onset of the phenotype or the inhibition of any further development of the multidrug phenotype. It is contemplated as part of the invention that the ABCB1 potentiated agent may be administered simultaneously with a chemotherapeutic agent that is a substrate of the ABCB1 transporter. It is understood as an aspect of the invention that such simultaneous administration refers to administration within the same general time period rather than at the same exact moment in time. Thus treatment with the ABCB1 potentiated compound and the chemotherapeutic agent may be on the same day or on different days, or in the same week or in different weeks. It is within the skill of the ordinary artisan to optimize a treatment schedule to maintain the therapeutic efficacy of the chemotherapeutic agent by administration of the ABCB1 potentiated compound to inhibit the development of drug resistance. MDR1-potentiated compounds may be used to prevent the emergence of drug resistance clones. […]

[15] = system: KB Hela cells expressing ABCB1(MDR1) under tetracycline control; assay: MTT assay using HeLa-transfectants with human MDR1 under tetracycline control; assay type: cell-based; conditions: absence (On) or presence (Off) of 2 μg/ml tetracycline
Procedure: Panel A is a scatter plot showing positive correlation (r=+0.54; 95% confidence interval 0.259 to 0.713) of ABCB1 expression with sensitivity of the 60 cell lines to NSC 73306. […] Cells are grown in the absence (ABCB1(MDR1)-On) or presence (ABCB1(MDR1)-Off) of 2 μg/ml tetracycline for at least seven days before starting the MTT assay. Cell surface expression and function of ABCB1 (MDR1) are verified prior to the assay by staining with anti-MDR1 monoclonal antibody (MRK-16) and by a performing a functional assay based on MDR1-controlled accumulation of the fluorescent dye Calcein (Homolya et al., 1996, Br. J. Cancer 73:849-855). […] Values are means ±S.E. of triplicate measurements.
as §1, with “Oreg.). […]” for “Oreg.).”

[16] = biological target: MDR1 (Homo sapiens, UniProt P08183); assay: Block of MDR1-mediated transport of other molecules; assay type: cell-based
Chain of MDR1 (P08183 whole entry): as the sequence (P08183 whole entry) above

[17] = system: KB-V1 cells (over-express MDR1-P-gp) vs parental KB-3-1 cells; assay: MTT assay using the KB-3-1/KB-V1 cell pair; assay type: cell-based, human
Procedure: as §1
To test whether our approach using the NCI-60 does, in fact, identify new substrates, an MTT assay is used to test all top-scoring compounds that were available from DTP for follow-up experiments. KB-3-1, a human carcinoma cell line, and KB-V1, a multidrug resistant derivative of KB-3-1 that over-expresses MDR1-P-gp (Shen et al., 1986, J. Biol. Chem. 261:7762-7770), are used for the tests. […] This resistance of KB-V-1 cells is invariably reversible by PSC 833. The intrinsic fluorescence of one of the compounds, NSC 634791, allows for the measurement of the effect of MDR1 activity on its export from cells.

[18] = biological target: T12, ABCA2 (Homo sapiens, UniProt Q9BZC7); assay: Correlation of ABCA2 expression with drug sensitivity across the NCI-60; assay type: cell-based; conditions: Pearson correlation of ABCA2 expression with sensitivity of the 60 cell lines; 1429 compounds; inverse, p < 0.0001
T12 construct: profiled in 60 diverse cancer cell lines (the NCI-60) using real-time RT-PCR; endogenous in cells; host or cells: NCI-60 human cancer cell lines
Procedure: as §2, §3, §4

CSCSCC(CO)NC(=O)/C=C\c1c(C)[nH]c(=O)[nH]c1=O (centres unmarked) [NSC 251820]
Correlation [1]: −0.4340

CC(=O)c1sc2c(c1OC(=O)c1ccc(Cl)cc1Cl)c(=O)n(-c1ccccc1)c(=S)n2-c1ccccc1 [NSC 671136]
Correlation (r) of ABCC11 expression with sensitivity [2]: −0.38 | Resistance of ABCC11-transfected LLC-PK1 cells relative to sham-transfected cells [3]: two- to three-fold

COc1cc2c(c(OC)c1OC)-c1cccc(=O)cc1C(NC(C)=O)CC2 (centres unmarked) [NSC 352277]
Correlation [4]: −0.3094

CC(=O)OC(C)(C)/C=C/C(=O)[C@](C)(O)[C@H]1[C@H](O)C[C@@]2(C)[C@@H]3CC=C4[C@@H](C=C(O)C(=O)C4(C)C)[C@]3(C)C(=O)C[C@]12C [NSC 106399]
Pearson's Correlation Coeff [5]: 0.1871 | Correlation [6]: −0.4232

N[C@H](C(=O)O)[C@@H]1CC(Cl)=NO1 [NSC 163501]
Correlation [7]: −0.5274 | Pearson's Correlation Coeff [5]: 0.2122 | Correlation [8]: −0.4301

O=c1[nH]cc(F)c(=O)[nH]1 [NSC 19893]
Correlation [9]: −0.4232

C=C1[C@@H](C)[C@H]2[C@H](Cc3ccccc3)NC(=O)[C@]23[C@H](OC(C)=O)/C=C/[C@@](C)(O)C(=O)[C@@H](C)C/C=C/[C@H]3[C@@H]1O [NSC 209835]
Correlation [10]: −0.4443

COc1cc2[nH]c3c(c2cc1OC)CCN[C@@]31CC[C@@]2(CC3c4c(cc(OC)c(O)c42)CCN3C)C[C@@H]1OC (some centres unmarked) [NSC 626578]
Correlation [11]: −0.4335

CS(=O)(=O)c1cc(=O)c2ccccc2s1 [NSC 622282]
Correlation [12]: −0.4406

CC(C)C1=CC2=CC[C@@H]3[C@](C)(CCC[C@@]3(C)C(=O)O)[C@H]2CC1 [NSC 25149]
Correlation [13]: −0.3794

COc1ccc(NC(=S)N/N=C2\C(=O)Nc3c(Cl)cc(Cl)cc32)cc1 [NSC 73306]
Drug sensitivity for non-MDR1 substrates after pretreatment ([14]; non-MDR1 substrates such as cisplatin and methotrexate): unchanged | Drug resistance to MDR1 substrates after pretreatment ([14]; pretreatment of MDR1 positive cells): almost complete elimination of drug resistance | Correlation of antiproliferative activity with ABCB1 expression [5]: 0.511 | Sensitivity of MDR1-On cells relative to MDR1-Off cells [15]: two- to four-fold; also recorded: approximately two-fold | Block of MDR1-mediated transport of other molecules [16]: does not block | Effect of PSC 833 on the heightened sensitivity of KB-V1 cells ([17]; MTT assay with 2 μM PSC 833): completely reversed sensitivity; also recorded: completely abolished the heightened sensitivity | Sensitivity of KB-V1 cells relative to parental KB-3-1 (potentiation by ABCB1) ([17]; MTT assay, 72 hrs): four- to five-fold; also recorded: approximately four-fold | Correlation [8]: −0.6029

O=C1c2cccc3cc([N+](=O)[O-])cc(c23)C(=O)N1Nc1ccc([N+](=O)[O-])cc1[N+](=O)[O-] [NSC 679265]
Correlation [18]: −0.3298
